Source: patent publication US20260108546A1 (ELI LILLY AND COMPANY, priority 2024, published 2026)

Molecular target: T1, hGIP-R (Homo sapiens, UniProt P48546)
T1 construct: expressed in transfected cells; host or cells: HEK-293 clonal cell lines
T1 sequence (P48546 22-466): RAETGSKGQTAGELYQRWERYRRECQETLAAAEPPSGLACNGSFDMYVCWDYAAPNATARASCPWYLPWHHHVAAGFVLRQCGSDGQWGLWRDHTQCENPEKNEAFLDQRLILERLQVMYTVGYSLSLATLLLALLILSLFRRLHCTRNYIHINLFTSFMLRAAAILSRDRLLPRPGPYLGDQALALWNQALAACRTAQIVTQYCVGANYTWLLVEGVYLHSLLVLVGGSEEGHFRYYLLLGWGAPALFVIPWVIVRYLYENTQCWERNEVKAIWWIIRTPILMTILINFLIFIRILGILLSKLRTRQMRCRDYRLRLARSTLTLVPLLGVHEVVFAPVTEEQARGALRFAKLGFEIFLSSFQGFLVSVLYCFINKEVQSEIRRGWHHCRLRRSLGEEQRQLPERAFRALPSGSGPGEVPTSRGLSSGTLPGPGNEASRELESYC
Assay: Functional hGIP-R Assay (cAMP formation, HTRF)
Type: cell-based
Conditions: for Emax: cAMP efficacy, percent of maximal response to GIP(1-42)OH, 37° C., 0.1% bovine casein, arithmetic mean ± SEM; for EC50: cAMP potency, HEK-293 cells expressing hGIP-R, incubated at 37° C. in the presence of 0.1% bovine casein, geometric mean, read-out: Human GIP-R EC50, nM (SEM, n)
How it was run: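 HEK-293 cells expressing hGIP-R were given a 20-point compound series in DMEM with 0.1% casein, 250 μM IBMX, 1% DMSO, 30 min at 37 °C. cAMP was read by HTRF against a standard curve, expressed as % of human GIP (1-42) OH maximum; EC50 and Emax came from four-parameter fits.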

Compound	Emax [%]	EC50 [nM]
[2H]C([2H])([2H])n1cc(C[C@H](C(=O)NC(C)(C)Cn2nc(C(F)(F)F)cc2-c2cnc(C(C)(C)O)nc2)N2CC[C@@]3(C[C@@H]3c3ccc(-c4cnc5nc(C6CC6)cn5c4)nc3C)C2=O)cn1 [Example 186, (R)-2-((1R,3R)-1-(6-(2-cyclopropylimidazo[1,2-a]pyrimidin-6-yl)-2-methylpyridin-3-yl)-4-oxo-5-azaspiro[2.4]heptan-5-yl)-N-(1-(5-(2-(2-hydroxypropan-2-yl)pyrimidin-5-yl)-3-(trifluoromethyl)-1H-pyrazol-1-yl)-2-methylpropan-2-yl)-3-(1-(methyl-d3)-1H-pyrazol-4-yl)propanamide]	104 ± 0.548	1.75
[2H]C([2H])([2H])n1cc(C[C@H](C(=O)NC(C)(C)Cn2nc(C(F)(F)F)cc2-c2cnc(C(C)(C)O)nc2)N2CC[C@@]3(C[C@@H]3c3ccc(-c4cnc5nc(C)cn5c4)cc3Cl)C2=O)cn1 [Example 187, (R)-2-((1S,3R)-1-(2-chloro-4-(2-methylimidazo[1,2-a]pyrimidin-6-yl)phenyl)-4-oxo-5-azaspiro[2.4]heptan-5-yl)-N-(1-(5-(2-(2-hydroxypropan-2-yl)pyrimidin-5-yl)-3-(trifluoromethyl)-1H-pyrazol-1-yl)-2-methylpropan-2-yl)-3-(1-(methyl-d3)-1H-pyrazol-4-yl)propanamide]	84.6 ± 2.33	1.26
[2H]C([2H])([2H])n1cc(C[C@H](C(=O)NC(C)(C)Cn2nc(C(F)(F)F)cc2-c2ccc(C(C)(C)O)nc2)N2CC[C@@]3(C[C@@H]3c3ccc(-c4cnc5nn(CC)cc5c4)nc3C)C2=O)cn1 [Example 189, (R)-2-((1R,3R)-1-(6-(2-Ethyl-2H-pyrazolo[3,4-b]pyridin-5-yl)-2-methylpyridin-3-yl)-4-oxo-5-azaspiro[2.4]heptan-5-yl)-N-(1-(5-(6-(2-hydroxypropan-2-yl)pyridin-3-yl)-3-(trifluoromethyl)-1H-pyrazol-1-yl)-2-methylpropan-2-yl)-3-(1-(methyl-d3)-1H-pyrazol-4-yl)propanamide]	61 ± 0.6	1.3

These reach a lower EC50. Values come first.

Emax [%]	EC50 [nM]	Compound
115 ± 5.3	0.402	[2H]C([2H])([2H])n1cc(C[C@H](C(=O)NC(C)(C)Cn2nc(C(F)(F)F)cc2-c2ccc(C(C)(C)O)nc2)N2CC[C@@]3(C[C@@H]3c3ccc(-c4cnc5nc(C6CC6)cn5c4)nc3C)C2=O)cn1 [Example 185, (R)-2-((1R,3R)-1-(6-(2-cyclopropylimidazo[1,2-a]pyrimidin-6-yl)-2-methylpyridin-3-yl)-4-oxo-5-azaspiro[2.4]heptan-5-yl)-N-(1-(5-(6-(2-hydroxypropan-2-yl)pyridin-3-yl)-3-(trifluoromethyl)-1H-pyrazol-1-yl)-2-methylpropan-2-yl)-3-(1-(methyl-d3)-1H-pyrazol-4-yl)propanamide]
110 ± 4.51	0.265	[2H]C([2H])([2H])n1cc(C[C@H](C(=O)NC(C)(C)Cn2nc(C(F)(F)F)cc2-c2ccc(C(C)(C)O)nc2)N2CC[C@@]3(C[C@@H]3c3ccc(-c4cnc5nc(COC)cn5c4)cc3Cl)C2=O)cn1 [Example 188, (R)-2-((1S,3R)-1-(2-chloro-4-(2-(methoxymethyl)imidazo[1,2-a]pyrimidin-6-yl)phenyl)-4-oxo-5-azaspiro[2.4]heptan-5-yl)-N-(1-(5-(6-(2-hydroxypropan-2-yl)pyridin-3-yl)-3-(trifluoromethyl)-1H-pyrazol-1-yl)-2-methylpropan-2-yl)-3-(1-(methyl-d3)-1H-pyrazol-4-yl)propanamide]
80.2 ± 6.78	1.12	[2H]C([2H])([2H])n1cc(C[C@H](C(=O)NC(C)(C)Cn2nc(C(F)(F)F)cc2-c2ccc(C(C)(C)O)nc2)N2CC[C@@]3(C[C@@H]3c3ccc(-c4cnc5nn(C6CC6)cc5c4)nc3C)C2=O)cn1 [Example 190, (R)-2-((1R,3R)-1-(6-(2-cyclopropyl-2H-pyrazolo[3,4-b]pyridin-5-yl)-2-methylpyridin-3-yl)-4-oxo-5-azaspiro[2.4]heptan-5-yl)-N-(1-(5-(6-(2-hydroxypropan-2-yl)pyridin-3-yl)-3-(trifluoromethyl)-1H-pyrazol-1-yl)-2-methylpropan-2-yl)-3-(1-(methyl-d3)-1H-pyrazol-4-yl)propanamide]
